Experimental data as given in patent publication US9518008B2, “(1S,2S,3S,4R)-3-[(1S)-1-acetylamino-2-ethyl-butyl]-4-uanidino-2-hydroxyl-cyclopentyl-1-carboxylic acid hydrates pharmaceutical uses thereof” (Institute of Pharmacology and Toxicology Academy of …, priority 2007, dated 2016).
Where two headings read alike, the source gives them in different places.

What was measured:
[1] = tested on: influenza virus strain B/Hong Kong/5/72; conditions: 1 mg/kg/day; cited from earlier work
[2] = tested on: NA of 7 influenza A virus stains; conditions: 7 influenza A virus strains; cited from earlier work
[3] = Stability of RWJ270201 in aqueous solution; assay type: physicochemical; conditions: as shown by study
[4] = rats, 1000 mg/kg/day for 5 days; cited from earlier work
[5] = Determination of hygroscopicity (high humidity test); assay type: physicochemical
Method: The hygroscopicity of the compound of the invention can be tested by a standard hygroscopicity test method. For example, the compound is stored in a sealed vessel at room temperature at a relative humidity of 92.5%, 80% or 75%, and the change in moisture content of the compound is tested by sampling at regular intervals.
At the 5th and 10th days, the products were sampled and determined in aspect of important items relating to stability investigation. […] If the weight gain of a product due to moisture absorption was more than 5%, the product was further experimented according to the same method under a relative humidity of 75%±5%. If the weight gain of a product due to moisture absorption was less than 5%, and other items thereof under investigation met the relevant requirements, no more experiment was needed. The humidity-constant condition could be achieved by placing a saturated saline solution at the lower part of a sealed vessel, e.g., a desiccator, and a NaCl saturated solution (15.5-60° C., a relative humidity of 75%±1%) or a KNO3 saturated solution (25° C., a relative humidity of 92.5%) may be selected according to the requirement of different relative humidity.

[6] = tested on: influenza virus strain A/Bayern/07/95 (H1N1); conditions: 10 mg/kg/day; cited from earlier work
[7] = tested on: influenza virus strain A/NWS/33 (H1N1); conditions: 10 mg/kg/day; cited from earlier work
[8] = tested on: NA of 4 influenza B virus strains; conditions: cited from earlier work
[9] = tested on: influenza virus strain A/HongKong/156/97 (H5N1); conditions: cited from earlier work
[10] = tested on: influenza virus strain FM1 (H1N1); experiment: Anti-influenza activity in infected mice (survival); assay type: in vivo, mice (BALB/C); conditions: 5 times, 14th day after infection
Method: A virus drip is prepared typically by including 500 pfu (plaque forming unit) of mice-compliance influenza virus strain in 50 μl phosphate buffer (containing 0.42% bovine serum albumin), and then dropped into nasal cavity of mice to infect them (BALB/C, female, aged 5-6 weeks, weighted 20 g). The compound of the invention is suspended in physiological saline to obtain different doses, typically from 2.5 mg/kg to 40 mg/kg, and is administered to the mice at different time before and after the viral infection, typically administered by intraperitoneal injection for 5 times, i.e., 1 hour, and 2, 3, 4, 5 days after the viral infection. The assay is performed by using 8 or 12, typically 10 mice. The result is expressed by the ratio of the number of survival mice the 14th day after the viral infection to the number of the mice in assay.
A solution was prepared by including 500 pfu (plaque forming unit) of mice-compliance influenza virus strain FM1 (H1N1) in 50 μl phosphate buffer (containing 0.42% bovine serum albumin), and then dropped into nasal cavity of mice (BALB/C, female, aged 5-6 weeks, weighted 20 g) to infect them with an infective dose of 23.7LD50. The compound of the invention was suspended in physiological saline, and was administered in doses of 2.5 mg/kg, 5 mg/kg, 10 mg/kg, 20 mg/kg to the mice by intraperitoneal injection for 5 times, i.e., 1 hour, and 2, 3, 4, 5 days after the viral infection, respectively. The assay was performed by 10 mice. The result was expressed by the ratio of the number of survival mice the 14th day after the viral infection to the number of the mice in assay.

[11] = Determination of solubility; conditions: Solvent: Water; 25±2° C.
Method: According to the invention, the solubility of the compound of the invention can be tested by using a standard solubility test method.
While vigorously stirring for 30 seconds every 5 minutes, the dissolution of the powder was observed within 30 minutes.

[12] = Relative humidity 92.5%, 25° C.

## CCC(CC)[C@H](NC(C)=O)[C@H]1[C@H](O)[C@@H](C(=O)O)C[C@H]1NC(=N)N [Anhydrous, (1S,2S,3S,4R)-3-[(1S)-1-acetylamino-2-ethyl-butyl]-4-guanidino-2-hydroxy-cyclopentyl-1-carboxylic acid, reference compound]
[1]
  arterial oxygen saturation: prevent the reduction in arterial oxygen saturation
  death rate: reduce the death rate
  efficacy compared with oseltamivir: more effective than oseltamivir
  lung consolidation: inhibit lung consolidation
[2]
  IC50: 100 to 1400 pM
[3]
  stability in aqueous solution: unstable in aqueous solution
[4]
  toxic side effect: no toxic side effect was found
[5]; Relative humidity 75%
  Hygroscopicity at the 5th day: 7.23%
  Hygroscopicity at the 10th day: 12.88%
[5]; [12]
  Hygroscopicity at the 5th day: 8.38%
  Hygroscopicity at the 10th day: 13.53%
[5]; as shown by study
  hygroscopicity: easily hygroscopic
[5]; ten-day observation test, sealed vessel, room temperature, high relative humidity
  weight gain: about 13.53%
[6]
  effect on infection: effectively antagonize the infection
[7]
  death rate: reduce the death rate
[8]
  IC50: 600 to 11000 pM
[9]; group of 10 mg/kg/day
  Survival rate: up to 100%
[9]; infected mice
  death rate: markedly reduce the death rate
  diffusion of virus to brain tissue: prevent the diffusion of virus to brain tissue
  virus titer in lung tissue: markedly reduce virus titer in lung tissue
[9]; mouse, in vivo, 0.1 mg/kg/day
  Survival rate: up to 70%
[10]; 2.5 mg/kg intraperitoneal
  Survival number: 5/10
  Survival rate: 50%
[10]; 5.0 mg/kg intraperitoneal
  Survival number: 7/10
  Survival rate: 70%
[10]; 10 mg/kg intraperitoneal
  Survival number: 7/10
  Survival rate: 70%
[10]; 20 mg/kg intraperitoneal
  Survival number: 9/10
  Survival rate: 90%

## (1S,2S,3S,4R)-3-[(1S)-1-acetylamino-2-ethyl-butyl]-4-guanidino-2-hydroxy-cyclopentyl-1-carboxylic acid dihydrate
[11]
  Solubility: 50 mg/mL
[5]; Relative humidity 75%
  Hygroscopicity at the 5th day: 2.21%
  Hygroscopicity at the 10th day: 2.54%
[5]; [12]
  Hygroscopicity at the 5th day: 2.54%
  Hygroscopicity at the 10th day: 2.98%
